Assay results reported in patent US4606908A, “Methods and compositions for plasma and organ imaging” (Washington Research Foundation, priority 1983, dated 1986).

Test system: isolated rabbit hearts
Test: extraction and retention of tracer in isolated perfused rabbit hearts (indicator dilution, coronary sinus outflow)
Parameters: species or system New Zealand white rabbits
Settings: isolated rabbit heart
Protocol: For isolated heart studies, after anesthesia with pentobarbital, the hearts were removed from 2 to 3 kg New Zealand white rabbits and mounted on a perfusion system in which the flow was controlled and the perfusion pressure monitored. The perfusate was (mM): Na 142, K 5.4, Mg 1.0, Ca 2.0, Cl 141, HCO3 12, PO4 0.435, glucose 11.0, and insulin 2 units/L, at 37° C. The coronary sinus flow and Thebesian flow into the right ventricle were collected via cannula placed through the pulmonary artery and a total effluent flow measured with graduated cylinder and stopwatch. Reference and test tracers were simultaneously injected as a mixed bolus into the aortic cannula, which supplied only the coronary system. Samples of the coronary sinus effluent were taken from the cannulated pulmonary artery at intervals of 1, 2, 4 or 10 seconds; higher sampling rates were used during the first part of the curves. The outflow of response was calculated as the fraction of dose emerging per unit time, h(t), at each time t:
F is the perfusate flow ml×s^-1 ;
C(t) is the concentration of tracer, cpm/ml; and
q0 is the injected dose of tracer, cpm.

CNCCCN1c2ccccc2CCc2ccc([125I])cc21 [^125 I-DMI]
retentions at 10-20 min (10-20 min): about 80%
maximal instantaneous extractions (37° C., plasma flows up to 1.5 ml/min×g): 96%
Overall retentions at 1 min (1 min, minimum value, indicator possibly impure): about 91%
